Test results reported in article PMC4167603 (Nature, 2014).
Values belong to the molecule of their own block, whether it stands above or below them.

Columns and labels:
[1] = target: T1, GABAAR β3 homopentamer (GABAAR-β3cryst) (Homo sapiens, UniProt P28472, DEL333-446/INS332SQPARAA); test: X-ray co-crystal structure; assay type: cell-based
T1 sequence (P28472 with tags, fused parts or gaps INS332SQPARAA): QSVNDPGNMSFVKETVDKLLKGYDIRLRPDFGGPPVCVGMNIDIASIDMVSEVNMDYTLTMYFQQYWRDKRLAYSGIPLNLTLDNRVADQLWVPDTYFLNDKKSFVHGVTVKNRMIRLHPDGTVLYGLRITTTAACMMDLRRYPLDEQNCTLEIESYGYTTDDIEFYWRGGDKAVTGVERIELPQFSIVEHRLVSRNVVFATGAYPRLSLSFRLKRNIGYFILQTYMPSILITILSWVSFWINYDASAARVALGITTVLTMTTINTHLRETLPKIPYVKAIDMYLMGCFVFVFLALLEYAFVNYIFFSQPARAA
T1 sequence (P28472 447-473): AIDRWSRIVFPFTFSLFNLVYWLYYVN

[2] = target: T1, GABAAR β3 homopentamer (GABAAR-β3cryst); test: thermostabilisation of purified receptor; assay type: binding
[3] = target: T1, GABAAR β3 homopentamer (GABAAR-β3cryst); test: thermostabilisation of purified receptor; assay type: binding; remark: listed apart in the source

EC50 [1]: 61 ± 12 µM
SMILES: N=C(N)c1ccccc1 [benzamidine]

SMILES: N#Cc1nn(-c2c(Cl)cc(C(F)(F)F)cc2Cl)c(N)c1[S+]([O-])C(F)(F)F (stereo not drawn) [fipronil]
EC50 [2]: 0.026 ± 0.005 µM

EC50 [3]: 400 ± 150 µM
SMILES: NCCc1c[nH]cn1 [histamine]
